Measurements as given in patent US20230040594A1, “MILK-DERIVED POLYPEPTIDE DERIVATIVE, COMPOSITION AND METHOD FOR PREVENTING AND TREATING OBESITY” (Nanjing Maternity and Child Health Care Hospital, priority 2021, published 2023).

Tests used:
[1] = tested on: obese C57BL/6J male mice induced by high-fat diet for six months; assay: Body weight, blood glucose and adipose tissue volume of obese model mice (Embodiment 6); format: in vivo
Method: C57BL/6J male mice at 6-8 weeks old were used as research subjects, and an experiment was carried out after adaptation to a SPF animal room for one week. The mice were fed with high-fat diet (with 60% of fat content) for six months to induce obesity phenotype in mice. After six months, the milk-derived polypeptide derivative shown by SEQ ID NO.5 (10 mg/kg) was administered by intraperitoneal injection once a day and continuously for 8 weeks. The mice were weighed every week for their weight changes, and at the same time, blood glucose changes of the mice were detected by a blood glucose meter. After intervention, the mice were killed, and then brown fat (BAT) at scapular, inguinal white adipose tissue (iWAT) and epididymal white adipose tissue (eWAT) were photographed. As mentioned above, H&E staining was also performed to observe morphological changes of lipid droplets, and expression of the UCP1 protein in adipose tissues was detected by immunohistochemistry and the Western blot methods.

[2] = tested on: brown fat (BAT) and inguinal subcutaneous white adipose tissues (iWAT); assay: H&E staining of adipose tissues of mice with high-fat diet (Embodiment 5); format: in vivo; conditions: 10 weeks; 5 and 10 mg/kg i.p. twice a week; FIG. 9
Method: C57BL/6J male mice at 6-8 weeks old were used as research subjects, and an experiment was carried out after adaptation to a SPF animal room for one week. The mice were fed with high-fat diet (with 60% of fat content) for 10 weeks to induce obesity phenotype in mice. At the same time, different drug concentrations (5 mg/kg and 10 mg/kg) were provided, and the milk-derived polypeptide derivatives corresponding to SEQ ID NO.5 were administered by intraperitoneal injection twice a week, with dissolved normal saline (Vehicle) as a control. After 10 weeks of intervention, the mice were killed, and brown fat (BAT) at scapula and inguinal subcutaneous white adipose tissues (iWAT) were taken to be fixed with a adipose tissue fixing solution (Solarbio, G2185) for 24 hours. H&E staining and a UCP1 protein immunohistochemistry study were carried out after dehydration, paraffin embedding and sectioning. The H&E staining is performed using a kit (ab245800) from Abcam, and specific steps can be found in kit instructions. Tissue sections were subjected to the immunohistochemistry study after dewaxing and antigen repairing. […] At the same time, total protein was extracted by a RIPA lysate, and expression of the UCP1 protein in the adipose tissues was detected by a Western blot method after quantifying, SDS-PAGE electrophoresis and transmembrane.

UCP1 protein [3] = assay: UCP1 protein immunohistochemistry and Western blot in adipose tissues of mice with high-fat diet (Embodiment 5); format: in vivo
Method: C57BL/6J male mice at 6-8 weeks old were used as research subjects, and an experiment was carried out after adaptation to a SPF animal room for one week. The mice were fed with high-fat diet (with 60% of fat content) for 10 weeks to induce obesity phenotype in mice. At the same time, different drug concentrations (5 mg/kg and 10 mg/kg) were provided, and the milk-derived polypeptide derivatives corresponding to SEQ ID NO.5 were administered by intraperitoneal injection twice a week, with dissolved normal saline (Vehicle) as a control. After 10 weeks of intervention, the mice were killed, and brown fat (BAT) at scapula and inguinal subcutaneous white adipose tissues (iWAT) were taken to be fixed with a adipose tissue fixing solution (Solarbio, G2185) for 24 hours. H&E staining and a UCP1 protein immunohistochemistry study were carried out after dehydration, paraffin embedding and sectioning. The H&E staining is performed using a kit (ab245800) from Abcam, and specific steps can be found in kit instructions. Tissue sections were subjected to the immunohistochemistry study after dewaxing and antigen repairing. Specifically, the sections were incubated overnight with UCP1 antibody (1:200, Proteintech) at 4 degrees. The antibody was diluted with PBS containing 1% of BSA, and a color reaction was carried out next day with a DAB kit from Abcam. Specific operations can be referred to kit experimental steps. At the same time, total protein was extracted by a RIPA lysate, and expression of the UCP1 protein in the adipose tissues was detected by a Western blot method after quantifying, SDS-PAGE electrophoresis and transmembrane.

UCP1 protein [4] = assay: UCP1 protein immunohistochemistry and Western blot in adipose tissues of obese model mice (Embodiment 6); format: in vivo; conditions: 10 mg/kg i.p. once a day for 8 weeks; FIG. 13 and FIG. 14
Method: (§1) C57BL/6J male mice at 6-8 weeks old were used as research subjects, and an experiment was carried out after adaptation to a SPF animal room for one week. The mice were fed with high-fat diet (with 60% of fat content) for 10 weeks to induce obesity phenotype in mice. At the same time, different drug concentrations (5 mg/kg and 10 mg/kg) were provided, and the milk-derived polypeptide derivatives corresponding to SEQ ID NO.5 were administered by intraperitoneal injection twice a week, with dissolved normal saline (Vehicle) as a control. […] At the same time, total protein was extracted by a RIPA lysate, and expression of the UCP1 protein in the adipose tissues was detected by a Western blot method after quantifying, SDS-PAGE electrophoresis and transmembrane.
(§2) C57BL/6J male mice at 6-8 weeks old were used as research subjects, and an experiment was carried out after adaptation to a SPF animal room for one week. […] The mice were weighed every week for their weight changes, and at the same time, blood glucose changes of the mice were detected by a blood glucose meter. […] As mentioned above, H&E staining was also performed to observe morphological changes of lipid droplets, and expression of the UCP1 protein in adipose tissues was detected by immunohistochemistry and the Western blot methods.

[5] = tested on: C57BL/6J male mice fed with high-fat diet; assay: Fasting blood glucose, blood lipid and insulin levels of mice with high-fat diet (Embodiment 4); format: in vivo; conditions: continuous intervention for 10 weeks; 5 and 10 mg/kg i.p. twice a week; FIG. 8
Method: (§3) C57BL/6J male mice at 6-8 weeks old were used as research subjects, and an experiment was carried out after adaptation to a SPF animal room for one week. The mice were fed with high-fat diet (with 60% of fat content) for 10 weeks to induce obesity phenotype in mice. At the same time, different drug concentrations (5 mg/kg and 10 mg/kg) of the milk-derived polypeptide derivatives corresponding to SEQ ID NO.5 were provided, and were administered by intraperitoneal injection twice a week, with resolvent saline (Vehicle) as a control. The changes of the blood glucose in the mice were detected by a Roche blood glucose meter, and changes of blood lipid and insulin level in the mice were detected by Applygen and Millipore commercial kits respectively.

[6] = tested on: C57BL/6J male mice fed with high-fat diet; assay: Glucose tolerance test (GTT) in mice with high-fat diet (Embodiment 3); format: in vivo; conditions: FIG. 6
Method: as §3, with “dissolved normal” for “resolvent”, “control.” for “control. The changes of the blood glucose in the mice were detected by a Roche blood glucose meter, and changes of blood lipid and insulin level in the mice were detected by Applygen and Millipore commercial kits respectively.”
(§4) Insulin Sensitivity: The mice are fasted overnight for 12 hours, and at a next day, insulin was injected by intraperitoneal injection at a standard of 0.75 U per kg of weight. Blood samples were taken from tail vein at 0 min, 15 min, 30 min, 60 min, 90 min and 120 min after the injection, and changes of the blood glucose in the mice were measured by a blood glucose meter to evaluate the insulin sensitivity of the mice. Glucose tolerance test: after fasting for 6 hours, the mice were injected with glucose by intraperitoneal injection at a concentration of 1 g per kg of weight. Blood samples were taken from tail vein at 0 min, 15 min, 30 min, 60 min, 90 min and 120 min after the injection, and changes of the blood glucose in the mice were measured by a blood glucose meter to evaluate the glucose tolerance of the mice.

[7] = tested on: C57BL/6J male mice fed with high-fat diet; assay: Weight increasing of mice with high-fat diet (Embodiment 2); format: in vivo; conditions: 5 and 10 mg/kg i.p. twice a week
Method: C57BL/6J male mice at 6-8 weeks old were used as research subjects, and an experiment was carried out after adaptation to a SPF animal room for one week. The mice were fed with high-fat diet (with 60% of fat content) for 10 weeks to induce obesity phenotype in mice. At the same time, different drug concentrations (5 mg/kg and 10 mg/kg) were provided, and the milk-derived polypeptide derivatives corresponding to SEQ ID NO.5 were administered by intraperitoneal injection twice a week, with dissolved normal saline (Vehicle) as a control. The mice are weighed to obtain body weight and their food intake calculated every week. After the mice were killed, brown fat (BAT) at scapular, inguinal white adipose tissue (iWAT) and epididymal white adipose tissue (eWAT) were photographed, weighed to obtain wet weight and lean mass of the mice was calculated.

[8] = tested on: C57BL/6J male mice fed with high-fat diet; assay: Insulin sensitivity (ITT) in mice with high-fat diet (Embodiment 3); format: in vivo
Method: as §3, with “dissolved normal” for “resolvent”, “control.” for “control. The changes of the blood glucose in the mice were detected by a Roche blood glucose meter, and changes of blood lipid and insulin level in the mice were detected by Applygen and Millipore commercial kits respectively.”
as §4

[9] = tested on: adipose tissues of obese model mice; assay: H&E staining of adipose tissues of obese model mice (Embodiment 6); format: in vivo; conditions: 10 mg/kg i.p. once a day for 8 weeks; FIG. 13
Method: as §1, §2

[10] = previous studies; can scavenge free radicals produced in vivo; cited from earlier work
[11] = 10 mg/kg i.p. once a day for 8 weeks after six months high-fat diet, FIG. 11

Sequence: GRKKRRQRRRPPQQVKEAMAPK [SEQ ID NO.5, theone tested in Embodiments 2-6]
- body weight of the obese mice [1, 11]: significantly reduced
- fasting blood glucose [1, 11]: decreased
- tissue volumes of white fat (subcutaneous and abdominal) and brown fat (scapular areas) ([1]; 10 mg/kg i.p. once a day for 8 weeks, after dissection, FIG. 12): significantly reduced
- morphology sizes of lipid droplets in brown fat and white adipose tissues (H&E staining) [2]: significantly reduced
- effect on UCP1 protein content at low drug concentration (Western blot) (UCP1 protein [3]; 5 mg/Kg, FIG. 10): good effect
- UCP1 immunohistochemistry brown areas in brown and white adipose tissues (UCP1 protein [3]; 10 weeks, 5 and 10 mg/kg i.p. twice a week, FIG. 9): significantly increased
- contents of the UCP1 protein in brown and white adipose tissues (Western blot) (UCP1 protein [3]; 10 weeks, 5 and 10 mg/kg, certain dose-dependent relationship, FIG. 10): significantly increased
- expression of UCP1 in two kinds of adipose tissues (immunohistochemistry and Western blot) (UCP1 protein [4]): increased
- blood lipid (triglyceride) level [5]: significantly reduced
- fasting blood glucose level [5]: significantly reduced
- insulin level [5]: significantly reduced
- area under the curve (GTT) ([6]; 10 mg/kg for 10 weeks): significant statistical significance
- blood glucose levels within 2 hours after glucose injection vs control ([6]; continuous intervention for 10 weeks, 5 and 10 mg/kg, glucose 1 g per kg i.p.): lower than those of the control group
- fat content (wet weight test of the adipose tissues) ([7]; 10 weeks, FIG. 4): decreased significantly
- lean mass of the mice ([7]; 10 weeks, FIG. 5): no significant change
- volumes of subcutaneous and abdominal white adipose tissues ([7]; after dissection, 10 weeks, FIG. 3): decreased significantly
- weight of the mice vs control group (Vehicle) ([7]; by 10th week): significantly lower
- insulin sensitivity (ITT) ([8]; 5 mg/kg, FIG. 7): certain statistical significance
- blood glucose levels within 2 hours after insulin injection vs control ([8]; continuous intervention for 10 weeks, 5 and 10 mg/kg, insulin 0.75 U per kg i.p.): lower than those of the control group
- sizes of the lipid droplets in the two tissues (H&E staining) [9]: decreased significantly

Sequence: VKEAMAPK [Val-Lys-Glu-Ala-Met-Ala-Pro-Lys, isolated linear milk-derived polypeptide from β-casein 98-105 amino acids]
- antioxidant activity [10]: antioxidant activity
